Source: US20260098046A1, “RIFABUTIN ANALOGS FOR THE TREATMENT OF DISEASE” (BIOVERSYS AG, priority 2022, published 2026)
Converted amounts (≈) assume the structure as drawn.

Columns and labels:
Assay type in all cases: cell-based
[1] = test system: M. abscessus (ATCC 19977); assay: MIC by broth microdilution (CLSI) against M. abscessus; details: Mycobacteroides abscessus, ATCC19977, 96 h; ATCC 19977; Middlebrook 7H9 broth + ADC (10%); 30° C. for 4 days; read-out: In vitro activity (MIC) M. abscessus
Protocol: (§1) MIC values were determined by broth microdilution method according to the CLSI guideline. Unless otherwise mentioned, MIC against A. baumannii was performed in RPMI medium supplemented with 10% FCS. MIC against M. abscessus was performed in Middlebrook 7H9 broth supplemented with Middlebrook ADC growth supplement (10%). All other MIC were performed in standard cation adjusted Mueller Hinton broth, supplemented with Middlebrook ADC growth supplement (5%) for the slow growing mycobacteria (M. xenopi, M. kansasii and M. avium).
(§2) The following procedure applies to all species tested, except for M. xenopi. From a fresh culture plate (from overnight to several days depending on the bacteria), cells were resuspended in 0.9% (w/v) saline solution and bacterial inoculum was prepared in the respective testing medium with 5×10^5 CFU/mL. For M. xenopi, the inoculum was prepared from a fresh liquid culture (7H9+ADC). The appropriate volumes of a 10 mg/mL compound solution were directly dispensed in the 96-well assay plate using a digital dispenser to create two-fold dilution series from 32 to 0.002 μg/mL final concentration for A. baumannii and S. aureus; from 16 to 0.016 μg/mL for M. abscessus and M. avium; and from 1 to 6×10^−5 μg/mL for M. kansasii and M. xenopi. 100 μL of bacterial suspension was finally added to the compounds. Plates were covered and incubated without shaking at 35° C. for 20 hours for A. baumanii and S. aureus; at 30° C. for 4 days for M. abscessus; and at 37° C. for 7 days (at least) for M. kansasii (covered with aluminum foil to avoid light exposure), M. avium and M. xenopi. Every experiment contained an antibiotic as quality control. MIC was determined visually as the lowest concentration of a compound that prevents visible growth of the bacteria.
(§3) The in vitro activity of compounds described herein was determined against S. aureus (UAMS-1625 strain), A. baumannii (HUMC1 strain), M. abscessus (ATCC 19977), M. kansasii (ATCC12478), M. avium (ATCC25291), and M. xenopi (ATCC19250).

M. xenopi (ATCC19250) = assay: MIC by broth microdilution (CLSI) against M. xenopi; details: Mycobacterium xenopi, 168 h, cation adjusted Mueller Hinton broth + ADC (5%), 37° C. for 7 days (at least), read-out: In vitro activity (MIC) M. xenopi
Protocol: as §1, §2, §3

[2] = test system: A. baumannii (HUMC1 strain); assay: MIC by broth microdilution (CLSI) against A. baumannii; details: Acinetobacter baumannii, RPMI medium supplemented with 10% FCS, 35° C. for 20 hours, read-out: In vitro activity (MIC) A. baumannii
Protocol: as §1, §2, §3

M. avium (ATCC25291) = assay: MIC by broth microdilution (CLSI) against M. avium; details: Mycobacterium avium, 168 h, cation adjusted Mueller Hinton broth + ADC (5%), 37° C. for 7 days (at least), read-out: In vitro activity (MIC) M. avium
Protocol: as §1, §2, §3

[3] = test system: S. aureus (UAMS-1625 strain); assay: MIC by broth microdilution (CLSI) against S. aureus; details: Staphylococcus aureus, 20 h, read-out: In vitro activity (MIC) S. aureus
Protocol: as §1, §2, §3

M. kansasii (ATCC12478) = assay: MIC by broth microdilution (CLSI) against M. kansasii; details: Mycobacterium kansasii, 168 h, cation adjusted Mueller Hinton broth + ADC (5%), 37° C. for 7 days (at least), read-out: In vitro activity (MIC) M. kansasii
Protocol: as §1, §2, §3

Structure (SMILES) | MIC [1] [µg/mL] | MIC (M. xenopi (ATCC19250)) [µg/mL] | MIC [2] [µg/mL] | MIC (M. avium (ATCC25291)) [µg/mL] | MIC [3] [µg/mL] | MIC (M. kansasii (ATCC12478)) [µg/mL]
CO[C@H]1/C=C/O[C@@]2(C)Oc3c(C)c(O)c4c(c3C2=O)C2=NC3(CCN(CC(C)C)CC3)NC2=C(NC(=O)/C(C)=C\C=C\[C@H](C)[C@H](O)[C@@H](C)[C@@H](O)[C@@H](C)[C@H](OC(=O)Cn2cc(-c3ccccc3)nn2)[C@@H]1C)C4=O [Compound 1] | 0.25 | 0.016 | 0.004 (≈ 0.00404 µM) | 0.03 | 0.125 (≈ 0.126 µM) | 0.002
COc1ccc(-c2cn(CC(=O)O[C@H]3[C@H](C)[C@H](O)[C@H](C)[C@@H](O)[C@@H](C)/C=C/C=C(/C)C(=O)NC4=C5NC6(CCN(CC(C)C)CC6)N=C5c5c(c(O)c(C)c6c5C(=O)[C@@](C)(O/C=C/[C@H](OC)[C@H]3C)O6)C4=O)nn2)cc1 [Compound 2] | 0.25 | 0.125 | 0.016 (≈ 0.0157 µM) | 0.06 | 0.125 (≈ 0.123 µM) | 0.002
CO[C@H]1/C=C/O[C@@]2(C)Oc3c(C)c(O)c4c(c3C2=O)C2=NC3(CCN(CC(C)C)CC3)NC2=C(NC(=O)/C(C)=C\C=C\[C@H](C)[C@H](O)[C@@H](C)[C@@H](O)[C@@H](C)[C@H](OC(=O)Cn2cc(-c3ccc(N)cc3)nn2)[C@@H]1C)C4=O [Compound 3] | 1 | – | ≤ 0.002 | – | 0.03 (≈ 0.0298 µM) | –
CO[C@H]1/C=C/O[C@@]2(C)Oc3c(C)c(O)c4c(c3C2=O)C2=NC3(CCN(CC(C)C)CC3)NC2=C(NC(=O)/C(C)=C\C=C\[C@H](C)[C@H](O)[C@@H](C)[C@@H](O)[C@@H](C)[C@H](OC(=O)Cn2cc(-c3ccc([N+](=O)[O-])cc3)nn2)[C@@H]1C)C4=O [Compound 4] | 0.125 | 0.03 | 0.125 (≈ 0.121 µM) | 0.03 | 0.5 (≈ 0.483 µM) | 0.002
COc1ccc2cc(-c3cn(CC(=O)O[C@H]4[C@H](C)[C@H](O)[C@H](C)[C@@H](O)[C@@H](C)/C=C/C=C(/C)C(=O)NC5=C6NC7(CCN(CC(C)C)CC7)N=C6c6c(c(O)c(C)c7c6C(=O)[C@@](C)(O/C=C/[C@H](OC)[C@H]4C)O7)C5=O)nn3)ccc2c1 [Compound 6] | 0.25 | 0.03 | 1 (≈ 0.934 µM) | 0.06 | 8 (≈ 7.47 µM) | 0.002
CO[C@H]1/C=C/O[C@@]2(C)Oc3c(C)c(O)c4c(c3C2=O)C2=NC3(CCN(CC(C)C)CC3)NC2=C(NC(=O)/C(C)=C\C=C\[C@H](C)[C@H](O)[C@@H](C)[C@@H](O)[C@@H](C)[C@H](OC(=O)Cn2cc(-c3ccc(-c5ccccc5)cc3)nn2)[C@@H]1C)C4=O [Compound 7] | 1 | – | 1 (≈ 0.938 µM) | – | 8 (≈ 7.5 µM) | –
CO[C@H]1/C=C/O[C@@]2(C)Oc3c(C)c(O)c4c(c3C2=O)C2=NC3(CCN(CC(C)C)CC3)NC2=C(NC(=O)/C(C)=C\C=C\[C@H](C)[C@H](O)[C@@H](C)[C@@H](O)[C@@H](C)[C@H](OC(=O)Cn2cc(-c3ccccn3)nn2)[C@@H]1C)C4=O [Compound 8] | 0.25 | 0.06 | ≤ 0.002 | 0.06 | 0.03 (≈ 0.0303 µM) | 0.004
CO[C@H]1/C=C/O[C@@]2(C)Oc3c(C)c(O)c4c(c3C2=O)C2=NC3(CCN(CC(C)C)CC3)NC2=C(NC(=O)/C(C)=C\C=C\[C@H](C)[C@H](O)[C@@H](C)[C@@H](O)[C@@H](C)[C@H](OC(=O)Cn2cc(CCCc3ccccc3)nn2)[C@@H]1C)C4=O [Compound 10] | 0.5 | – | 0.125 (≈ 0.121 µM) | – | 8 (≈ 7.75 µM) | –
CO[C@H]1/C=C/O[C@@]2(C)Oc3c(C)c(O)c4c(c3C2=O)C2=NC3(CCN(CC(C)C)CC3)NC2=C(NC(=O)/C(C)=C\C=C\[C@H](C)[C@H](O)[C@@H](C)[C@@H](O)[C@@H](C)[C@H](OC(=O)Cn2cc(-c3cccs3)nn2)[C@@H]1C)C4=O [Compound 11] | 1 | – | 0.008 (≈ 0.00803 µM) | – | 0.03 (≈ 0.0301 µM) | –
CO[C@H]1/C=C/O[C@@]2(C)Oc3c(C)c(O)c4c(c3C2=O)C2=NC3(CCN(CC(C)C)CC3)NC2=C(NC(=O)/C(C)=C\C=C\[C@H](C)[C@H](O)[C@@H](C)[C@@H](O)[C@@H](C)[C@H](OC(=O)Cn2cc(C(C)(C)N)nn2)[C@@H]1C)C4=O [Compound 13] | 1 | – | ≤ 0.002 | – | 0.125 (≈ 0.129 µM) | –
